According to US20250195530A1, “POLQ INHIBITORS” (ASTRAZENECA AB, priority 2022, published 2025):
Read-outs that look alike come from different tables or passages of the source.

Columns and labels:
DLD-1 BRCA2−/− cells = experiment: Homologous recombination synthetic lethal inhibition of proliferation, DLD-1 BRCA2-/- (Cell Titre Glo 3D); assay type: cell-based; settings: for IC50: Homo sapiens, read-out: POLQ PD Prolif Lumin (converted); for POLQ PD Prolif Lumin: DLD-1 BRCA2-/- proliferation
Procedure, shortened: (§1)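 Read-out: CellTiter-Glo 3D luminescence, day 7 for wt DLD-1, day 12 for BRCA2−/−, about 8-9 population doublings each. Seeding 1,500 or 3,000 cells/mL respectively. Dose range 10 μM–0.51 nM, 3-fold, 10 points, with re-dosing on day 6. IC50 from curve fit.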

DLD-1 cells = experiment: Inhibition of proliferation, DLD-1 BRCA2 wt control (Cell Titre Glo 3D); assay type: cell-based; settings: for IC50: Homo sapiens, read-out: POLQ PD Prolif Lumin (converted); for POLQ PD Prolif Lumin: DLD-1 BRCA2 wt control proliferation
Procedure, shortened: as §1

[1] = DLD-1, DLD-1 BRCA2-/- proliferation, column head only partly shown
[2] = DLD-1, DLD-1 BRCA2 wt control proliferation, column head only partly shown
[3] = DLD-1, first proliferation column (c5), taken as DLD-1 BRCA2-/-
[4] = DLD-1, second proliferation column (c6), taken as DLD-1 BRCA2 wt

IC50 (DLD-1 cells; [2]) [µM] | IC50 (DLD-1 cells; [4]) [µM] | Compound | IC50 (DLD-1 BRCA2−/− cells; [1]) [µM] | IC50 (DLD-1 BRCA2−/− cells; [3]) [µM] | further results
> 10 |  | Cc1cnc(Cn2c(-c3ccc(OC4CCN(C)CC4)cc3Cl)nc3c(OC4(C)CC4)ncnc32)s1 [Example T241, 2-((8-(2-chloro-4-((1-methylpiperidin-4-yl)oxy)phenyl)-6-(1-methylcyclopropoxy)-9H-purin-9-yl)methyl)-5-methylthiazole] | 0.316 |  | 
> 7.94 |  | Cc1cnc(Cn2c(-c3ccc(OCCCN4CC(O)C4)cc3Cl)nc3c(OC4(C)CC4)ncnc32)s1 [Example T244, 1-(3-(3-chloro-4-(6-(1-methylcyclopropoxy)-9-((5-methylthiazol-2-yl)methyl)-9H-purin-8-yl)phenoxy)propyl)azetidin-3-ol] | 0.501 |  | 
> 10 |  | Cc1cnc(Cn2c(-c3cccc(OCCCN4CC(O)C4)c3Cl)nc3c(OC4(C)CC4)ncnc32)s1 [Example T246, 1-(3-(2-chloro-3-(6-(1-methylcyclopropoxy)-9-((5-methylthiazol-2-yl)methyl)-9H-purin-8-yl)phenoxy)propyl)azetidin-3-ol] | 0.794 |  | 
> 10 |  | Cc1csc(Cn2c(-c3ccc(OCCN4CCNCC4)cc3Cl)nc3c(OC4(C)CC4)ncnc32)n1 [Example T248, 2-((8-(2-chloro-4-(2-(piperazin-1-yl)ethoxy)phenyl)-6-(1-methylcyclopropoxy)-9H-purin-9-yl)methyl)-4-methylthiazole] | 2 |  | 
> 10 |  | Cc1ncc(Cn2c(-c3ccc(OCCN4CCNCC4)cc3Cl)nc3c(OC4(C)CC4)ncnc32)s1 [Example T249, 5-((8-(2-chloro-4-(2-(piperazin-1-yl)ethoxy)phenyl)-6-(1-methylcyclopropoxy)-9H-purin-9-yl)methyl)-2-methylthiazole] | 3.98 |  | 
> 10 |  | CC1(Oc2ncnc3c2nc(-c2ccc(OCc4nc(C(=O)O)cs4)cc2Cl)n3Cc2cccc(Cl)c2)CC1 [Example T250, 2-((3-chloro-4-(9-(3-chlorobenzyl)-6-(1-methylcyclopropoxy)-9H-purin-8-yl)phenoxy)methyl)thiazole-4-carboxylic acid] | 3.16 |  | 
 |  | CC1(Oc2ncnc3c2nc(-c2ccc(O[C@H]4C[C@H](C(=O)O)C4)cc2Cl)n3Cc2cccc(Cl)c2)CC1 [Example T253, (1r,3r)-3-(3-chloro-4-(9-(3-chlorobenzyl)-6-(1-methylcyclopropoxy)-9H-purin-8-yl)phenoxy)cyclobutane-1-carboxylic acid] |  |  | POLQ PD Prolif Lumin (DLD-1 BRCA2−/− cells; column head only partly shown): 6.5; POLQ PD Prolif Lumin (DLD-1 cells; column head only partly shown): <5.0
 |  | CC1(Oc2ncnc3c2nc(-c2ccc(O[C@H]4C[C@@H](C(=O)O)C4)cc2Cl)n3Cc2cccc(Cl)c2)CC1 [Example T254, (1s,3s)-3-(3-chloro-4-(9-(3-chlorobenzyl)-6-(1-methylcyclopropoxy)-9H-purin-8-yl)phenoxy)cyclobutane-1-carboxylic acid] |  |  | POLQ PD Prolif Lumin (DLD-1 BRCA2−/− cells; column head only partly shown): 6.8; POLQ PD Prolif Lumin (DLD-1 cells; column head only partly shown): <5.0
> 10 |  | CC1(Oc2ncnc3c2nc(-c2ccc(OCCN4CC(O)C4)cc2Cl)n3Cc2cc(C(F)(F)F)ccn2)CC1 [Example T284, 1-(2-(3-chloro-4-(6-(1-methylcyclopropoxy)-9-((4-(trifluoromethyl)pyridin-2-yl)methyl)-9H-purin-8-yl)phenoxy)ethyl)azetidin-3-ol] | 0.501 |  | 
> 10 |  | CC1(Oc2ncnc3c2nc(-c2cccc(OCCCCC(=O)O)c2Cl)n3Cc2cccc(Cl)c2)CC1 [Example T292, 5-(2-chloro-3-(9-(3-chlorobenzyl)-6-(1-methylcyclopropoxy)-9H-purin-8-yl)phenoxy)pentanoic acid] | 0.0316 |  | 
> 10 |  | C[C@@H](CCOc1cccc(-c2nc3c(OC4(C)CC4)ncnc3n2Cc2cccc(Cl)c2)c1Cl)C(=O)O [Example T296, (S)-4-(2-chloro-3-(9-(3-chlorobenzyl)-6-(1-methylcyclopropoxy)-9H-purin-8-yl)phenoxy)-2-methylbutanoic acid] | 0.0251 |  | 
 | > 10 | CC1(Oc2ncnc3c2nc(-c2ccc(OCCCOCC(=O)O)cc2Cl)n3Cc2cccc(Cl)c2)CC1 [Example T302, 2-(3-(3-chloro-4-(9-(3-chlorobenzyl)-6-(1-methylcyclopropoxy)-9H-purin-8-yl)phenoxy)propoxy)acetic acid] |  | 0.316 | 
 | > 10 | CC1(Oc2ncnc3c2nc(-c2cccc(OCCCOCC(=O)O)c2Cl)n3Cc2cccc(Cl)c2)CC1 [Example T304, 2-(3-(2-chloro-3-(9-(3-chlorobenzyl)-6-(1-methylcyclopropoxy)-9H-purin-8-yl)phenoxy)propoxy)acetic acid] |  | 0.1 | 
 | > 10 | CC1(Oc2ncnc3c2nc(-c2ccc(OCCN4CC(O)C4)cc2Cl)n3Cc2cc(C(F)F)ccn2)CC1 [Example T307, 1-(2-(3-chloro-4-(9-((4-(difluoromethyl)pyridin-2-yl)methyl)-6-(1-methylcyclopropoxy)-9H-purin-8-yl)phenoxy)ethyl)azetidin-3-ol] |  | 1.58 | 
 | > 10 | Cc1ccnc(Cn2c(-c3ccc(CC(=O)N4CCC4)cc3Cl)nc3c(OC4(C)CC4)ncnc32)c1 [Example T308, 1-(azetidin-1-yl)-2-(3-chloro-4-(6-(1-methylcyclopropoxy)-9-((4-methylpyridin-2-yl)methyl)-9H-purin-8-yl)phenyl)ethan-1-one] |  | 0.316 | 
 | > 10 | Cc1ccnc(Cn2c(-c3ccc(CC(=O)NC4CC4)cc3Cl)nc3c(OC4(C)CC4)ncnc32)c1 [Example T310, 2-(3-chloro-4-(6-(1-methylcyclopropoxy)-9-((4-methylpyridin-2-yl)methyl)-9H-purin-8-yl)phenyl)-N-cyclopropylacetamide] |  | 0.398 | 
 | > 10 | Cc1ccnc(Cn2c(-c3ccc(C(=O)N4CC[C@@H](O)C4)cc3Cl)nc3c(OC4(C)CC4)ncnc32)c1 [Example T311, (R)-(3-chloro-4-(6-(1-methylcyclopropoxy)-9-((4-methylpyridin-2-yl)methyl)-9H-purin-8-yl)phenyl)(3-hydroxypyrrolidin-1-yl)methanone] |  | 3.98 | 
 | > 10 | CC1(Oc2ncnc3c2nc(-c2ccc(OCCCC(=O)NS(C)(=O)=O)cc2Cl)n3Cc2cccc(Cl)c2)CC1 [Example T326, 4-(3-chloro-4-(9-(3-chlorobenzyl)-6-(1-methylcyclopropoxy)-9H-purin-8-yl)phenoxy)-N-(methylsulfonyl)butanamide] |  | 0.631 | 
 | 10 | CN(C)CCCOc1ccc(-c2nc3c(OC4(C)CC4)ncnc3n2Cc2cc(C(F)(F)F)ccn2)c(Cl)c1 [Example T329, 3-(3-chloro-4-(6-(1-methylcyclopropoxy)-9-((4-(trifluoromethyl)pyridin-2-yl)methyl)-9H-purin-8-yl)phenoxy)-N,N-dimethylpropan-1-amine] |  | 0.126 | 
 | > 10 | Cc1ccnc(Cn2c(-c3ccc(OC4CCS(=O)(=O)CC4)cc3Cl)nc3c(OC4(C)CC4)ncnc32)c1 [Example T335, 4-(3-chloro-4-(6-(1-methylcyclopropoxy)-9-((4-methylpyridin-2-yl)methyl)-9H-purin-8-yl)phenoxy)tetrahydro-2H-thiopyran 1,1-dioxide] |  | 0.251 | 
 | > 10 | Cc1ccnc(Cn2c(-c3ccc(N4C[C@H]5C[C@@H]4CN5)cc3Cl)nc3c(OC4(C)CC4)ncnc32)c1 [Example T336, 8-(4-((1R,4R)-2,5-diazabicyclo[2.2.1]heptan-2-yl)-2-chlorophenyl)-6-(1-methylcyclopropoxy)-9-((4-methylpyridin-2-yl)methyl)-9H-purine] |  | 1.58 | 
 | > 10 | Cc1ccnc(Cn2c(-c3ccc(C(=O)N4CCNCC4)cc3Cl)nc3c(OC4(C)CC4)ncnc32)c1 [Example T337, (3-chloro-4-(6-(1-methylcyclopropoxy)-9-((4-methylpyridin-2-yl)methyl)-9H-purin-8-yl)phenyl)(piperazin-1-yl)methanone] |  | 5.01 | 
 | > 10 | Cc1ccnc(Cn2c(-c3ccc(NC(=O)N4CC[C@@H](O)C4)cc3Cl)nc3c(OC4(C)CC4)ncnc32)c1 [Example T342, (R)-N-(3-chloro-4-(6-(1-methylcyclopropoxy)-9-((4-methylpyridin-2-yl)methyl)-9H-purin-8-yl)phenyl)-3-hydroxypyrrolidine-1-carboxamide] |  | > 3.98 | 
 | 10 | CC1(Oc2ncnc3c2nc(-c2ccc(OCCN4CCNCC4)cc2Cl)n3Cc2nccc(Cl)c2F)CC1 [Example T345, 9-((4-chloro-3-fluoropyridin-2-yl)methyl)-8-(2-chloro-4-(2-(piperazin-1-yl)ethoxy)phenyl)-6-(1-methylcyclopropoxy)-9H-purine] |  | 0.794 | 
 | > 10 | CC1(Oc2ncnc3c2nc(-c2ccc(OCCN4CCNCC4)cc2Cl)n3Cc2cc(Cl)c(F)cn2)CC1 [Example T346, 8-(2-chloro-4-(2-(piperazin-1-yl)ethoxy)phenyl)-9-((4-chloro-5-fluoropyridin-2-yl)methyl)-6-(1-methylcyclopropoxy)-9H-purine] |  | 1.58 | 
 | > 7.94 | CC1(Oc2ncnc3c2nc(-c2ccc(OCCCN4CC(O)C4)cc2Cl)n3Cc2cc(Cl)ccn2)CC1 [Example T347, 1-(3-(3-chloro-4-(9-((4-chloropyridin-2-yl)methyl)-6-(1-methylcyclopropoxy)-9H-purin-8-yl)phenoxy)propyl)azetidin-3-ol] |  | 0.158 | 

Compound | IC50 (DLD-1 cells; [2]) [µM] | IC50 (DLD-1 cells; [4]) [µM] | IC50 (DLD-1 BRCA2−/− cells; [1]) [µM] | IC50 (DLD-1 BRCA2−/− cells; [3]) [µM] | further results
CC(C)(C)Oc1cccc2c1nc(-c1ccc(OCCC(=O)O)cc1Cl)n2Cc1cccc(Cl)c1 [Example T288, 3-(4-(4-(tert-butoxy)-1-(3-chlorobenzyl)-1H-benzo[d]imidazol-2-yl)-3-chlorophenoxy)propanoic acid] | > 10 |  | 2 |  | 
